Earlier results in PMC7520419 (The AAPS Journal, 2020).
Where a name gives a salt, the structure may show the parent alone. Read-outs that look alike come from different tables or passages of the source.

Conditions: cited from earlier work; for Food Effect: compiled by literature search
[1] = clinically observed PK change (AUC, Cmax) fed vs fasted
[2] = Model 2, fasted, ref published clinical data (Table I)
[3] = Model 2, fed, ref published clinical data (Table I)
For Observed AUC(0-inf) Fasted in this document: test concentration or dose not given here.
For Observed AUC(0-inf) Fed in this document: test concentration or dose not given here.
For Observed Cmax Fasted in this document: test concentration or dose not given here.
For Observed Cmax Fed in this document: test concentration or dose not given here.

Compound	Food Effect [1]	also measured
CCCCC(C)(O)C/C=C/[C@H]1[C@H](O)CC(=O)[C@@H]1CCCCCCC(=O)OC (mixture of isomers) [Misoprostol]	None (none if no significant change in AUC and Cmax with food)	–
Nc1nc(NC2CC2)c2ncn([C@H]3C=C[C@@H](CO)C3)c2n1 [Abacavir sulfate]	None (none if no significant change in AUC and Cmax with food)	–
COc1cc(C)c(/C=C/C(C)=C/C=C/C(C)=C/C(=O)O)c(C)c1C [Acitretin]	Positive (positive if the ratio of fed > fasted)	–
CCCSc1ccc2nc(NC(=O)OC)[nH]c2c1 [Albendazole]	Positive (positive if the ratio of fed > fasted)	–
COc1cc2nc(N(C)CCCNC(=O)C3CCCO3)nc(N)c2cc1OC (stereo not shown) [Alfuzosine]	Positive (positive if the ratio of fed > fasted)	–
CCCCc1oc2ccccc2c1C(=O)c1cc(I)c(OCCN(CC)CC)c(I)c1 [Amiodarone]	Positive (positive if the ratio of fed > fasted)	–
O=C1CCc2ccc(OCCCCN3CCN(c4cccc(Cl)c4Cl)CC3)cc2N1 [Aripiprazole]	None (none if no significant change in AUC and Cmax with food)	–
CC(C)c1c(C(=O)Nc2ccccc2)c(-c2ccccc2)c(-c2ccc(F)cc2)n1CC[C@@H](O)C[C@@H](O)CC(=O)O [Atorvastatin]	None (none if no significant change in AUC and Cmax with food)	–
O=C1C(O)=C([C@H]2CC[C@H](c3ccc(Cl)cc3)CC2)C(=O)c2ccccc21 [Atovaquone]	Positive (positive if the ratio of fed > fasted)	–
CNC(=O)c1ccccc1Sc1ccc2c(/C=C/c3ccccn3)n[nH]c2c1 [Axitinib]	None (none if no significant change in AUC and Cmax with food)	–
CC(O)(CS(=O)(=O)c1ccc(F)cc1)C(=O)Nc1ccc(C#N)c(C(F)(F)F)c1 (stereo not shown) [Bicalutamide]	None (none if no significant change in AUC and Cmax with food)	–
CC(=O)N(CCC(CCN1CCCCC1)(C(N)=O)c1ccccc1Cl)C(C)C (stereo not shown) [Bidisomide]	Negative (negative if ratio fasted > fed)	–
O=C1CN=C(c2ccccn2)c2cc(Br)ccc2N1 [Bromazepam]	Negative (negative if ratio fasted > fed)	–
CC(C)C[C@H]1C(=O)N2CCC[C@H]2[C@]2(O)O[C@](NC(=O)[C@@H]3C=C4c5cccc6[nH]c(Br)c(c56)C[C@H]4N(C)C3)(C(C)C)C(=O)N12 [Bromocriptine]	None (none if no significant change in AUC and Cmax with food)	–
COc1cc2nccc(Oc3ccc(NC(=O)C4(C(=O)Nc5ccc(F)cc5)CC4)cc3)c2cc1OC [Cabozantinib]	Positive (positive if the ratio of fed > fasted)	–
CCCCCOC(=O)Nc1nc(=O)n([C@@H]2O[C@H](C)[C@@H](O)[C@H]2O)cc1F [Capecitabine]	Negative (negative if ratio fasted > fed)	–
C=CC1=C(C(=O)O)N2C(=O)[C@@H](NC(=O)/C(=N\O)c3csc(N)n3)[C@H]2SC1 [Cefdinir]	None (none if no significant change in AUC and Cmax with food)	–
CO/N=C(\C(=O)N[C@@H]1C(=O)N2C(C(=O)OCOC(=O)C(C)(C)C)=C(/C=C\c3scnc3C)CS[C@H]12)c1csc(N)n1 [Cefditoren pivoxil]	Positive (positive if the ratio of fed > fasted)	–
Cc1ccc(-c2cc(C(F)(F)F)nn2-c2ccc(S(N)(=O)=O)cc2)cc1 [Celecoxib]	Slightly positive	–

Compound	Food Effect [1]	also measured
O=P(O)(O)C(Cl)(Cl)P(=O)(O)O [Clodronate]	Negative (negative if ratio fasted > fed)	–
COC(=O)[C@H](c1ccccc1Cl)N1CCc2sccc2C1 [Clopidogrel bisulfate]	–	Food Effect (active metabolite measured, fed vs fasted): None (none if no significant change in AUC and Cmax with food); Food Effect (prodrug measured, fed vs fasted): Positive (positive if the ratio of fed > fasted)
C[C@@H](Oc1cc(-c2cnn(C3CCNCC3)c2)cnc1N)c1c(Cl)ccc(F)c1Cl [Crizotinib]	None (none if no significant change in AUC and Cmax with food)	–
C#C[C@]1(O)CC[C@H]2[C@@H]3CCC4=Cc5oncc5C[C@]4(C)[C@H]3CC[C@@]21C [Danazol]	–	Observed AUC(0-inf) Fasted [2]: 231 ng·h/mL; Observed Cmax Fasted [2]: 37 ng/mL; Observed AUC(0-inf) Fed [3]: 668 ng·h/mL; Observed Cmax Fed [3]: 101 ng/mL
O=c1[nH]cnc2c1ncn2[C@H]1CC[C@@H](CO)O1 [Didanosine]	Negative (negative if ratio fasted > fed)	–
O=C1Nc2ccc(Cl)cc2[C@@](C#CC2CC2)(C(F)(F)F)O1 [Efavirenz]	Positive (positive if the ratio of fed > fasted)	–
CCCCCCCNC(=O)Oc1ccc2c(c1)[C@]1(C)CCN(C)[C@@H]1N2C [Eptastigmine]	Negative (negative if ratio fasted > fed)	–
C#Cc1cccc(Nc2ncnc3cc(OCCOC)c(OCCOC)cc23)c1 [Erlotinib]	Positive (positive if the ratio of fed > fasted)	–
C#C[C@]1(O)CC[C@H]2[C@@H]3CCc4cc(O)ccc4[C@H]3CC[C@@]21C [Ethinyl estradiol]	None (none if no significant change in AUC and Cmax with food)	–
CC(C)OC(=O)C(C)(C)Oc1ccc(C(=O)c2ccc(Cl)cc2)cc1 [Fenofibrate]	Positive (positive if the ratio of fed > fasted)	–
CC(C)(C(=O)O)c1ccc(C(O)CCCN2CCC(C(O)(c3ccccc3)c3ccccc3)CC2)cc1 (stereo not shown) [Fexofenadine]	Negative (negative if ratio fasted > fed)	–
CNCCC(Oc1ccc(C(F)(F)F)cc1)c1ccccc1 (stereo not shown) [Fluoxetine hydrochloride]	None (none if no significant change in AUC and Cmax with food)	–
NS(=O)(=O)c1cc(C(=O)O)c(NCc2ccco2)cc1Cl [Furosemide]	–	food effect (FE) direction (ref drug label): negative FE
Nc1nc(O)c2ncn(COC(CO)CO)c2n1 [Ganciclovir]	None (none if no significant change in AUC and Cmax with food)	–
NNc1nncc2ccccc12 [Hydralazine]	Negative (negative if ratio fasted > fed)	–
NS(=O)(=O)c1cc2c(cc1Cl)NCNS2(=O)=O [Hydrochlorothiazide]	None (none if no significant change in AUC and Cmax with food)	–
CC(C)Cn1cnc2c(N)nc3ccccc3c21 [Imiquimod]	None (none if no significant change in AUC and Cmax with food)	–
CCCCC1=NC2(CCCC2)C(=O)N1Cc1ccc(-c2ccccc2-c2nnn[nH]2)cc1 [Irbesartan]	None (none if no significant change in AUC and Cmax with food)	–
O=[N+]([O-])O[C@@H]1CO[C@H]2[C@@H]1OC[C@@H]2O [Isosorbide Mononitrite]	None (none if no significant change in AUC and Cmax with food)	–

Compound	Food Effect [1]	also measured
CC1=C(/C=C/C(C)=C/C=C/C(C)=C\C(=O)O)C(C)(C)CCC1 [Isotretinoin]	Positive (positive if the ratio of fed > fasted)	–
Cc1c(OCC(F)(F)F)ccnc1C[S+]([O-])c1nc2ccccc2[nH]1 (stereo not shown) [Lansoprazole]	None (none if no significant change in AUC and Cmax with food)	–
CS(=O)(=O)CCNCc1ccc(-c2ccc3ncnc(Nc4ccc(OCc5cccc(F)c5)c(Cl)c4)c3c2)o1 [Lapatinib]	Positive (positive if the ratio of fed > fasted)	–
CN(C)C(=N)N=C(N)N [Metformin]	None (none if no significant change in AUC and Cmax with food)	–
CCc1nn(CCCN2CCN(c3cccc(Cl)c3)CC2)c(=O)n1CCOc1ccccc1 [Nefazodone hydrochloride]	Negative (negative if ratio fasted > fed)	–
CC1COc2c(N3CCN(C)CC3)c(F)cc3c(=O)c(C(=O)O)cn1c23 (stereo not shown) [Ofloxacin]	None (Absorption delayed but extent not substantially affected) (none if no significant change in AUC and Cmax with food)	–
CCOC(=O)C1=C[C@@H](OC(CC)CC)[C@H](NC(C)=O)[C@@H](N)C1 [Oseltamavir]	None (none if no significant change in AUC and Cmax with food)	–
CC[C@@H]([C@H](C)O)n1ncn(-c2ccc(N3CCN(c4ccc(OC[C@@H]5CO[C@@](Cn6cncn6)(c6ccc(F)cc6F)C5)cc4)CC3)cc2)c1=O [Posaconazole]	Positive (positive if the ratio of fed > fasted)	–
CNC(=O)c1cc(Oc2ccc(NC(=O)Nc3ccc(Cl)c(C(F)(F)F)c3)c(F)c2)ccn1 [Regorafenib]	Positive (positive if the ratio of fed > fasted)	–
NC(=O)c1ncn([C@@H]2O[C@H](CO)[C@@H](O)[C@H]2O)n1 [Ribavirin]	Positive (positive if the ratio of fed > fasted)	–
CC(C)c1nc(CN(C)C(=O)N[C@H](C(=O)N[C@@H](Cc2ccccc2)C[C@H](O)[C@H](Cc2ccccc2)NC(=O)OCc2cncs2)C(C)C)cs1 [Ritonavir]	None (none if no significant change in AUC and Cmax with food)	–
CS(=O)(=O)c1ccc(C2=C(c3ccccc3)C(=O)OC2)cc1 [Rofecoxib]	None (none if no significant change in AUC and Cmax with food)	–
CC(C)c1nc(N(C)S(C)(=O)=O)nc(-c2ccc(F)cc2)c1/C=C/[C@@H](O)C[C@@H](O)CC(=O)O [Rosuvastatin]	Negative (negative if ratio fasted > fed)	–
N#CC[C@H](C1CCCC1)n1cc(-c2ncnc3[nH]ccc23)cn1 [Ruxolitinib]	None (none if no significant change in AUC and Cmax with food)	–
CC(C)(C)NC(=O)[C@@H]1C[C@@H]2CCCC[C@@H]2CN1C[C@@H](O)[C@H](Cc1ccccc1)NC(=O)[C@H](CC(N)=O)NC(=O)c1ccc2ccccc2n1 [Saquinavir]	Positive (positive if the ratio of fed > fasted)	–
COc1cccc(CCc2ccccc2OCC(CN(C)C)OC(=O)CCC(=O)O)c1 (stereo not shown) [Sarpogrelate]	Negative (negative if ratio fasted > fed)	–
CN[C@H]1CC[C@@H](c2ccc(Cl)c(Cl)c2)c2ccccc21 [Sertraline]	None (none if no significant change in AUC and Cmax with food)	–
N[C@@H](CC(=O)N1CCn2c(nnc2C(F)(F)F)C1)Cc1cc(F)c(F)cc1F [Sitagliptin]	None (none if no significant change in AUC and Cmax with food)	–
Cc1c(C(=O)Nc2ccc(N3C[C@@H](C)O[C@@H](C)C3)nc2)cccc1-c1ccc(OC(F)(F)F)cc1 [Sonidegib]	Positive (positive if the ratio of fed > fasted)	–
